Results published in patent US6204293A, “Inhibitors of protein isoprenyl transferases” (University of Pittsburgh, priority 1998, dated 2001).
Counter-ions that a name gives are not always drawn. Like-named read-outs stand apart in the source and are kept apart here. Blank lines part the entries; values can stand above or below the compound they belong to.

Target: T1, Rat brain protein farnesyltransferase (Rattus norvegicus, UniProt Q02293+Q04631)
T1 construct: Rat brain protein farnesyltransferase activity is measured; from tissue; host or cells: rat brain
T1 sequence (Q02293 whole entry, one chain of several): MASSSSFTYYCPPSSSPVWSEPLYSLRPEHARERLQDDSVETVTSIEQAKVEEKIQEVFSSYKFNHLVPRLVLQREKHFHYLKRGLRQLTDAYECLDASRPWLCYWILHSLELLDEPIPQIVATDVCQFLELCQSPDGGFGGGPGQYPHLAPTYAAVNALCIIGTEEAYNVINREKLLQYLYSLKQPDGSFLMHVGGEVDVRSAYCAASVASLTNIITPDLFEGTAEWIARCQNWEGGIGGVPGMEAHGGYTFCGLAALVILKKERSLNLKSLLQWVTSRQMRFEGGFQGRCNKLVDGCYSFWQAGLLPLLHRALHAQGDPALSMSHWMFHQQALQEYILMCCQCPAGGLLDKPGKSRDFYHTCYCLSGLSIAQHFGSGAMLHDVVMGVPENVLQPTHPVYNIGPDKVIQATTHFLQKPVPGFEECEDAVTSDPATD
Test: % inhibition of farnesylation, scintillation proximity assay with biotin-K Ras B fragment
Type: biochemical
Conditions: for % inhibition at 1 × 10^-8 M: Table 4; for inhibition at 0.1 µM: read-out: % inhibition at 1 × 10^-7 M; for inhibition at 1 µM: read-out: % inhibition at 1 × 10^-6 M; for % inhibition at 1 × 10^-5 M: Table 1
Excerpt: The ability of the compounds of the invention to inhibit protein farnesyltransferase or protein geranylgeranyltransferase can be measured according to the method of Moores, et al., J. Biol. Chem. 266: 14603 (1991) or the method of Vogt, et al., J. Biol. Chem. 270:660-664 (1995). In addition, procedures for determination of the inhibition of farnesylation of the oncogene protein Ras are described by Goldstein, et al., J. Biol. Chem., 266:15575-15578 (1991) and by Singh in U.S. Pat. No. 5,245,061.
In addition, in vitro inhibition of protein farnesyltransferase may be measured by the following procedure. Rat brain protein farnesyltransferase activity is measured using an Amersham Life Science commercial scintillation proximity assay kit and substituting a biotin-K Ras B fragment (biotin-[…]CO2 H), 0.1 mM final concentration, for the biotin-lamin substrate provided by Amersham. The enzyme is purified according to Reiss, Y., et al., Cell, 62: 81-88 (1990), utilizing steps one through three.
The % inhibition of protein farnesyltransferase was determined for representative compounds of the invention.

[1] = read-out: % inhibition at 0.01 μM (**), Table 6, ** footnote 0.01 μM (title: 0.01 mM)

% inhibition at 1 × 10^-6 M (Table 2, 1 × 10^-6 M): 40%
SMILES: CSCC[C@H](NC(=O)c1ccc(CNc2ccc(-c3nc4ccccc4s3)cc2)cc1-c1ccccc1)C(=O)O [Example 703]

% inhibition at 1 × 10^-8 M: 95%
SMILES: CSCC[C@H](NC(=O)c1ccc(CN[C@H](CSC2CCCCC2)CC2CCCCC2)cc1-c1ccccc1C)C(=O)O [Example 766]

SMILES: CSCC[C@H](NC(=O)c1ccc(C=Cc2ccccc2Cc2ccccc2)cc1-c1ccccc1C)C(=O)[O-].[Li+] [Example 457]
% inhibition at 1 × 10^-6 M (Table 2, 1 × 10^-6 M): 92%

SMILES: COc1ccccc1COCc1ccc(C(=O)N[C@@H](CCSC)C(=O)O)c(-c2ccccc2C)c1 [Example 931, N-[4-(2-methoxybenzyloxymethyl)-2-(2-methylphenyl)benzoyl]methionine lithium salt]
inhibition at 0.1 µM: 98%

% inhibition at 1 × 10^-6 M (Table 2, 1 × 10^-6 M): 97%
SMILES: Cc1ccccc1-c1cc(CN(C)C(C)(C)CC2CCCCC2)ccc1C(=O)N[C@@H](CCS(C)(=O)=O)C(=O)O [Example 314]

SMILES: CSCC[C@H](NC(=O)c1ccc(CSCc2ccc(C)cc2)cc1-c1ccccc1C)C(=O)O [Example 556, N-[4-(4-methylbenzyl)thiomethyl-2-(2-methylphenyl)benzoyl]methionine, lithium salt]
inhibition at 1 µM: 99%

inhibition at 1 µM (Table 2, 1 × 10^-6 M): 78%
SMILES: CSCC[C@H](NC(=O)c1cc(Cc2ccccc2)c(COCc2ccccc2)cc1-c1ccccc1C)C(=O)O [Example 923, N-[5-Benzyl-4-benzyloxymethyl-2-(2-methylphenyl)benzoyl]methionine]

inhibition at 0.1 µM (Table 3, 1 × 10^-7 M): 96%
SMILES: CSCC[C@H](NC(=O)c1ccc(CSc2nnc[nH]2)cc1-c1ccccc1C)C(=O)O [Example 735]

SMILES: CSCC[C@H](NC(=O)c1ccc(COCCc2ccccc2Cl)cc1-c1ccccc1C)C(=O)O [Example 588, N-[4-(2-(2-chlorophenyl)ethoxymethyl)-2-(2-methylphenyl)benzoyl]methionine lithium salt]
inhibition at 0.01 µM (read-out: % inhibition at 1 × 10^-8 M): 68%

% inhibition at 1 × 10^-6 M (Table 2, 1 × 10^-6 M): 94%
SMILES: CSCC[C@H](NC(=O)c1ccc(/C=C/CC2CCCCC2)cc1-c1ccccc1C)C(=O)O [Example 471]

% inhibition at 1 × 10^-5 M: 78%
SMILES: CSCC[C@H](NC(=O)c1ccc(CNc2ccc(F)cc2)cc1-c1ccccc1)C(=O)O [Example 687]

inhibition at 0.1 µM (Table 3, 1 × 10^-7 M): 68%
SMILES: CSCC[C@H](NC(=O)c1ccc(CSc2ncnc3[nH]cnc23)cc1-c1ccccc1C)C(=O)O [Example 747]

SMILES: CSCC[C@H](NC(=O)c1ccc(COCc2ccc3ccccc3c2)cc1-c1ccccc1C)C(=O)O [Example 583, N-[4-(naphth-2-ylmethoxymethyl)-2-(2-methylphenyl)benzoyl]methionine lithium salt]
inhibition at 1 µM: 98%

% inhibition at 1 × 10^-8 M: 73%
SMILES: COc1ccc(N(Cc2ccccc2)Cc2ccc(C(=O)N[C@@H](CCSC)C(=O)O)c(-c3ccccc3C)c2)cc1 [Example 840]

SMILES: CCCCC(OCc1ccc(C(=O)N[C@@H](CCSC)C(=O)O)c(-c2ccccc2C)c1)c1cccc(Cl)c1 (stereo partly drawn) [Example 1206, N-[4-(1-(3-chlorophenyl)pentan-1-yloxymethyl)-2-(2-methylphenyl)benzoyl]methionine lithium salt]
inhibition at 0.01 µM (read-out: % inhibition at 0.01 μM (**)): 63%

inhibition at 0.01 µM [1]: 95%
SMILES: CCS(=O)(=O)C[C@H](CC1CCCCC1)OCc1ccc(C(=O)N[C@@H](CCSC)C(=O)O)c(-c2ccccc2C)c1 [Example 1311, N-[4-(3-Cyclohexyl-1-ethylsulfonylprop-2-yloxymethyl)-2-(2-methylphenyl)benzoyl]methionine Lithium Salt]

% inhibition at 1 × 10^-6 M (Table 2, 1 × 10^-6 M): 94%
SMILES: CSCC[C@H](NC(=O)c1ccc(CN(Cc2ccccc2)Cc2cccc(Oc3ccccc3)c2)cc1-c1ccccc1C)C(=O)O [Example 514]

inhibition at 1 µM (Table 2, 1 × 10^-6 M): 95%
SMILES: COc1ccc(CCOCc2ccc(C(=O)N[C@@H](CCSC)C(=O)O)c(-c3ccccc3C)c2)cc1 [Example 937, N-[4-(2-(4-methoxyphenyl)ethoxymethyl)-2-(2-methylphenylbenzoyl]methioninelithium salt]

inhibition at 0.01 µM [1]: 91%
SMILES: CSCC[C@H](NC(=O)c1ccc(CO[C@@H](CC2CCCCC2)C(=O)N2CCCCC2)cc1-c1ccccc1C)C(=O)O [Example 1052, N-[4-(3-cyclohexyl-N-piperidin-1-ylpropion-2-yloxymethyl)-2-(2-methylphenyl)benzoyl]methionine, lithium salt]

% inhibition at 1 × 10^-6 M (Table 2, 1 × 10^-6 M): 95%
SMILES: CSCC[C@H](NC(=O)c1ccc(CN(Cc2cncs2)S(C)(=O)=O)cc1-c1ccccc1C)C(=O)O [Example 878]

SMILES: CSCC[C@H](NC(=O)c1ccc(COC2(c3ccccc3)CCN(C(=O)OC(C)(C)C)CC2)cc1-c1ccccc1C)C(=O)O [Example 816, N-[4-(1-t-butoxycarbonyl-4-phenylpiperidin-4-yloxymethyl)-2-(2-methylphenyl)benzoyl]methionine lithium salt]
inhibition at 1 µM: 87%

% inhibition at 1 × 10^-8 M: 79%
SMILES: CSCC[C@H](NC(=O)c1ccc(CN(C)C(CC2CCCCC2)CC2CCCCC2)cc1-c1ccccc1C)C(=O)O [Example 907]

SMILES: CSCC[C@H](NC(=O)c1ccc(COCc2ccc(-c3ccc(C=O)cc3)o2)cc1-c1ccccc1C)C(=O)O [Example 448, N-[4-(5-(4-formylphenyl)furan-2-ylmethoxymethyl)-2-(2-methylphenyl)benzoyl]methionine lithium salt]
inhibition at 0.1 µM: 92%

inhibition at 0.1 µM (Table 3, 1 × 10^-7 M): 97%
SMILES: CSCC[C@H](NC(=O)c1ccc(COCc2ccc(-c3ccc(Cl)cc3)o2)cc1-c1ccccc1C)C(=O)O [Example 443, N-[4-(5-(4-chlorophenyl)furan-2-ylmethoxmethyl)-2-(2-methylphenyl)benzoyl]methionine lithium salt]

% inhibition at 1 × 10^-5 M: 40%
SMILES: CSCC[C@H](NC(=O)c1ccc(CNc2cccc(C)c2)cc1-c1ccccc1)C(=O)O [Example 674]

inhibition at 1 µM (Table 2, 1 × 10^-6 M): 90%
SMILES: CSCC[C@H](NC(=O)c1ccc(COc2nc3ccccc3s2)cc1-c1ccccc1C)C(=O)O [Example 321, [4-(2-benzothiazolyloxymethyl)-2-(2-methylphenyl)benzoyl]methionine]

% inhibition at 1 × 10^-6 M (Table 2, 1 × 10^-6 M): 98%
SMILES: CSCC[C@H](NC(=O)c1ccc(CN(C(C)C)C(C)(C)CC2CCCCC2)cc1-c1ccccc1C)C(=O)O [Example 318]

inhibition at 0.01 µM [1]: 81%
SMILES: CSCC[C@H](NC(=O)c1ccc(COCc2ccc(C3CCCCC3)o2)cc1-c1ccccc1C)C(=O)O [Example 1090, [4-(2-(5-cyclohexylfuranyl)methoxymethyl)-2-(2-methylphenyl)-benzoyl]methionine, lithium salt]

% inhibition at 1 × 10^-6 M (Table 2, 1 × 10^-6 M): 93%
SMILES: CSCC[C@H](NC(=O)c1ccc(/C=C/c2cccc3ccccc23)cc1-c1ccccc1C)C(=O)O [Example 466]

% inhibition at 1 × 10^-6 M (Table 2, 1 × 10^-6 M): 24%
SMILES: CSCC[C@H](NC(=O)c1ccc(NCCO)cc1-c1ccccc1)C(=O)O [Example 502]

% inhibition at 1 × 10^-6 M (Table 2, 1 × 10^-6 M): 96%
SMILES: CSCC[C@H](NC(=O)c1ccc(CCCC(=O)c2ccc3ccccc3c2)cc1-c1ccccc1C)C(=O)O [Example 473]

SMILES: CSCC[C@H](NC(=O)c1ccc(COCCc2ccco2)cc1-c1ccccc1C)C(=O)O [Example 531, N-[4-(2-furan-2-ylethoxymethyl)-2-(2-methylphenyl)benzoyl]methionine lithium salt]
inhibition at 0.1 µM: 74%

inhibition at 0.1 µM (Table 3, 1 × 10^-7 M): 81%
SMILES: CSCC[C@H](NC(=O)c1ccc(COc2cccc3ccccc23)cc1-c1ccccc1C)C(=O)O [Example 574, N-[4-(naphth-1-yloxymethyl)-2-(2-methylphenyl)benzoyl]methionine]
